Experimental data as given in PubChem BioAssay (NCI).
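Each compound was tested at five concentrations against cells in 96-well plates for 48 hours. Definition used: TGI = concentration required for complete inhibition of growth.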

Columns and labels:
Experiment in all cases: NCI anticancer screen, dose series, 48 h
[1] = test system: T-47D breast
[2] = test system: HOP-62 NSCLC
[3] = test system: M14 melanoma
[4] = test system: MDA-N
[5] = test system: UO-31 renal
[6] = test system: HCT-15 colon
[7] = test system: SNB-75 CNS
[8] = test system: DU-145 prostate
[9] = test system: HOP-92 NSCLC
[10] = test system: OVCAR-5 ovarian
[11] = test system: A498 renal
[12] = test system: HCC-2998 colon
[13] = test system: MDA-MB-435
[14] = test system: OVCAR-4 ovarian
[15] = test system: CCRF-CEM leukemia
[16] = test system: HL-60(TB) leukemia
[17] = test system: SN12C renal
[18] = test system: COLO 205 colon
[19] = test system: IGROV1 ovarian
[20] = test system: ACHN renal
[21] = test system: HT29 colon
[22] = test system: EKVX NSCLC
[23] = test system: NCI-H23 lung
[24] = test system: SK-MEL-28 melanoma
[25] = test system: SF-268 CNS
[26] = test system: UACC-62 melanoma
[27] = test system: MDA-MB-231 breast
[28] = test system: U251 CNS
[29] = test system: SNB-19 CNS
[30] = test system: RPMI-8226 leukemia
[31] = test system: NCI-H522 lung
[32] = test system: A549 NSCLC
[33] = test system: K-562 leukemia
[34] = test system: TK-10 renal
[35] = test system: PC-3 prostate
[36] = test system: SF-295 CNS
[37] = test system: 786-0 renal
[38] = test system: SK-OV-3 ovarian
[39] = test system: MOLT-4 leukemia
[40] = test system: CAKI-1 renal
[41] = test system: RXF 393 renal
[42] = test system: HS 578T breast
[43] = test system: OVCAR-8 ovarian
[44] = test system: SR leukemia
[45] = test system: UACC-257 melanoma
[46] = test system: NCI-H460 lung
[47] = test system: MCF7 breast
[48] = test system: KM12 colon
[49] = test system: MALME-3M melanoma
[50] = test system: NCI/ADR-RES ovarian
[51] = test system: NCI-H226 lung
[52] = test system: SK-MEL-2 melanoma
[53] = test system: LOX IMVI melanoma
[54] = test system: SK-MEL-5 melanoma
[55] = test system: HCT-116 colon
[56] = test system: OVCAR-3 ovarian
[57] = test system: BT-549 breast
[58] = test system: SW-620 colon
[59] = test system: SF-539 CNS

## C#CC(O)/C=C/C(O)CCCC(O)CC#CC(O)C#CCCCCC(O)/C=C/CCCC(O)/C=C/CCCCCCCCCCCCCC(O)C(O)C#CC(=O)O (centres undefined)
[1]
  TGI: > 25 µM
[2]
  TGI: > 25 µM
[3]
  TGI: > 25 µM
[4]
  TGI: > 25 µM
[5]
  TGI: > 25 µM
[6]
  TGI: > 25 µM
[7]
  TGI: > 25 µM
[8]
  TGI: > 25 µM
[9]
  TGI: > 25 µM
[10]
  TGI: > 25 µM
[11]
  TGI: > 25 µM
[12]
  TGI: > 25 µM
[13]
  TGI: > 25 µM
[14]
  TGI: > 25 µM
[15]
  TGI: > 25 µM
[16]
  TGI: > 25 µM
[17]
  TGI: > 25 µM
[18]
  TGI: > 25 µM
[19]
  TGI: > 25 µM
[20]
  TGI: > 25 µM
[21]
  TGI: > 25 µM
[22]
  TGI: > 25 µM
[23]
  TGI: > 25 µM
[24]
  TGI: > 25 µM
[25]
  TGI: > 25 µM
[26]
  TGI: > 25 µM
[27]
  TGI: > 25 µM
[28]
  TGI: > 25 µM
[29]
  TGI: > 25 µM
[30]
  TGI: > 25 µM
[31]
  TGI: > 25 µM
[32]
  TGI: > 25 µM
[33]
  TGI: > 25 µM
[34]
  TGI: > 25 µM
[35]
  TGI: > 25 µM
[36]
  TGI: > 25 µM
[37]
  TGI: > 25 µM
[38]
  TGI: > 25 µM
[39]
  TGI: > 25 µM
[40]
  TGI: > 25 µM
[41]
  TGI: > 25 µM
[42]
  TGI: > 25 µM
[43]
  TGI: > 25 µM
[44]
  TGI: > 25 µM
[45]
  TGI: > 25 µM
[46]
  TGI: > 25 µM
[47]
  TGI: > 25 µM
[48]
  TGI: > 25 µM
[49]
  TGI: > 25 µM
[50]
  TGI: > 25 µM
[51]
  TGI: > 25 µM
[52]
  TGI: > 25 µM
[53]
  TGI: > 25 µM
[54]
  TGI: > 25 µM
[55]
  TGI: > 25 µM

## C[C@H]1O[C@@H](C(C)(C)C)OC(=O)[C@@H]1C(OC(=O)c1ccccc1)c1cccc2ccccc12 (some centres undefined)
[56]
  TGI: > 100 µM
[1]
  TGI: > 100 µM
[2]
  TGI: > 100 µM
[3]
  TGI: > 100 µM
[4]
  TGI: > 100 µM
[5]
  TGI: > 100 µM
[6]
  TGI: > 100 µM
[7]
  TGI: > 100 µM
[10]
  TGI: > 100 µM
[12]
  TGI: > 100 µM
[13]
  TGI: > 100 µM
[14]
  TGI: > 100 µM
[15]
  TGI: > 100 µM
[17]
  TGI: > 100 µM
[18]
  TGI: > 100 µM
[57]
  TGI: > 100 µM
[19]
  TGI: > 100 µM
[58]
  TGI: > 100 µM
[20]
  TGI: > 100 µM
[21]
  TGI: > 100 µM
[22]
  TGI: > 100 µM
[23]
  TGI: > 100 µM
[24]
  TGI: > 100 µM
[25]
  TGI: > 100 µM
[26]
  TGI: > 100 µM
[27]
  TGI: > 100 µM
[28]
  TGI: > 100 µM
[29]
  TGI: > 100 µM
[30]
  TGI: > 100 µM
[31]
  TGI: > 100 µM
[32]
  TGI: > 100 µM
[33]
  TGI: > 100 µM
[34]
  TGI: > 100 µM
[35]
  TGI: > 100 µM
[36]
  TGI: > 100 µM
[37]
  TGI: > 100 µM
[38]
  TGI: > 100 µM
[39]
  TGI: > 100 µM
[40]
  TGI: > 100 µM
[41]
  TGI: > 100 µM
[42]
  TGI: > 100 µM
[43]
  TGI: > 100 µM
[44]
  TGI: > 100 µM
[45]
  TGI: > 100 µM
[46]
  TGI: > 100 µM
[47]
  TGI: > 100 µM
[48]
  TGI: > 100 µM
[49]
  TGI: > 100 µM
[59]
  TGI: > 100 µM
[50]
  TGI: > 100 µM
[51]
  TGI: > 100 µM
[52]
  TGI: > 100 µM
[53]
  TGI: > 100 µM
[54]
  TGI: > 100 µM
[55]
  TGI: > 100 µM

## CC(=O)NC1(C)C(C)C2CC1C(C)C2(C)C (centres undefined)
[56]
  TGI: > 100 µM
[1]
  TGI: > 100 µM
[2]
  TGI: > 100 µM
[3]
  TGI: > 100 µM
[4]
  TGI: > 100 µM
[5]
  TGI: > 100 µM
[7]
  TGI: > 100 µM
[8]
  TGI: > 100 µM
[9]
  TGI: > 100 µM
[10]
  TGI: > 100 µM
[11]
  TGI: > 100 µM
[12]
  TGI: > 100 µM
[13]
  TGI: > 100 µM
[14]
  TGI: > 100 µM
[15]
  TGI: > 100 µM
[16]
  TGI: > 100 µM
[17]
  TGI: > 100 µM
[18]
  TGI: > 100 µM
[57]
  TGI: > 100 µM
[19]
  TGI: > 100 µM
[58]
  TGI: > 100 µM
[20]
  TGI: > 100 µM
[21]
  TGI: > 100 µM
[22]
  TGI: > 100 µM
[23]
  TGI: > 100 µM
[24]
  TGI: > 100 µM
[25]
  TGI: > 100 µM
[26]
  TGI: > 100 µM
[27]
  TGI: > 100 µM
[28]
  TGI: > 100 µM
[29]
  TGI: > 100 µM
[31]
  TGI: > 100 µM
[32]
  TGI: > 100 µM
[33]
  TGI: > 100 µM
[34]
  TGI: > 100 µM
[35]
  TGI: > 100 µM
[36]
  TGI: > 100 µM
[37]
  TGI: > 100 µM
[38]
  TGI: > 100 µM
[39]
  TGI: > 100 µM
[40]
  TGI: > 100 µM
[41]
  TGI: > 100 µM
[42]
  TGI: > 100 µM
[43]
  TGI: > 100 µM
[44]
  TGI: > 100 µM
[45]
  TGI: > 100 µM
[46]
  TGI: > 100 µM
[47]
  TGI: > 100 µM
[48]
  TGI: > 100 µM
[49]
  TGI: > 100 µM
[59]
  TGI: > 100 µM
[51]
  TGI: > 100 µM
[54]
  TGI: > 100 µM
[55]
  TGI: > 100 µM
